These results are taken from patent publication US20060241172A1, “Benzodioxane and benzodioxolane derivatives and uses thereof” (Wyeth, priority 2005, published 2006).

Molecules are shown by their SMILES. Structures can show the parent of a compound that is named as a salt.

One data set has as its target T1, human 5-hydroxytryptamine-2C (h5-HT2C) receptor (Homo sapiens, UniProt P28335).
T1 construct: expressed in transfected cells; host or cells: CHO (Chinese Hamster Ovary) cells; membranes
T1 sequence (P28335 33-458): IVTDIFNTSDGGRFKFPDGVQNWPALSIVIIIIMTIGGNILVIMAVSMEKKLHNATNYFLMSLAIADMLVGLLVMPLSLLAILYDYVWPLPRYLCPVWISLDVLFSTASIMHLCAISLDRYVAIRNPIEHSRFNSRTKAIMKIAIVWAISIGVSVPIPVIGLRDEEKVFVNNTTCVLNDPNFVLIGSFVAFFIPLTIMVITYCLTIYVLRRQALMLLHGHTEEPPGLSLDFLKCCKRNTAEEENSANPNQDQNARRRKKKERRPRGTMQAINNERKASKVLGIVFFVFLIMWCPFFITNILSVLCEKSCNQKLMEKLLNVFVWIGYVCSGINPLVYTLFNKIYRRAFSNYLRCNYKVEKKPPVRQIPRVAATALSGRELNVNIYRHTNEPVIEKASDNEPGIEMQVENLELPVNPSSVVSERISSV
As to the kind of experiment: 5-HT2C binding: [125I]DOI displacement in membranes of transfected CHO cells. Conditions: read-out: 5-HT2C Binding Ki avg.
What is called Ki is the dissociation constant of the complex between target and ligand, obtained from inhibition or displacement. With `COc1ccccc1-c1cccc2c1O[C@@](C)(CN)CO2` [Compound I-52, {[(2S)-8-(2-Methoxyphenyl)-2-methyl-2,3-dihydro-1,4-benzodioxin-2-yl]methyl}amine], the Ki was greater than 200 nM.

For the compound `C[C@]1(CN)COc2cccc(-c3ccc(Cl)cc3)c2O1` [Compound I-51, {[(2S)-8-(4-Chlorophenyl)-2-methyl-2,3-dihydro-1,4-benzodioxin-2-yl]methyl}amine], the Ki was greater than 200 nM.

As to `CN(C)CC1Oc2cc(F)cc(-c3ccccc3Cl)c2O1` (stereo not drawn) [Compound I-89, 1-[4-(2-chlorophenyl)-6-fluoro-1,3-benzodioxol-2-yl]-N,N-dimethylmethanamine], the Ki fell in the range of 50 to 200 nM.

`COc1ccccc1-c1cc(Cl)cc2c1OC(CN)O2` (stereo not drawn) [Compound I-92, [6-Chloro-4-(2-methoxy-phenyl)-benzo[1,3]dioxol-2-yl]-methylamine]: the inhibition constant Ki was in the range of 50 to 200 nM.

As to `CCNCC1Oc2cc(F)cc(-c3ccccc3Cl)c2O1` (stereo not drawn) [Compound I-88, N-{[4-(2-Chlorophenyl)-6-fluoro-1,3-benzodioxol-2-yl]methyl}ethanamine], the Ki fell in the range of 50 to 200 nM.

As for `C[C@]1(CN)COc2cccc(-c3ccccc3)c2O1` [Compound I-48, {[(2S)-2-Methyl-8-phenyl-2,3-dihydro-1,4-benzodioxin-2-yl]methyl}amine], the Ki is greater than 200 nM.

Take `NCC1Oc2cc(F)cc(-c3ccccc3)c2O1` (stereo not drawn) [Compound I-77, 1-(6-Fluoro-4-phenyl-1,3-benzodioxol-2-yl)methanamine]: the Ki was 50 to 200 nM.

In the case of `NCC1Oc2cc(Cl)cc(-c3ccccc3F)c2O1` (stereo not drawn) [Compound I-93, [6-Chloro-4-(2-fluoro-phenyl)-benzo[1,3]dioxol-2-yl]-methylamine], the Ki was 50 to 200 nM.

Turning to `NCC1Oc2cc(F)cc(-c3cccc(Cl)c3)c2O1` (stereo not drawn) [Compound I-78, 1-[4-(3-Chlorophenyl)-6-fluoro-1,3-benzodioxol-2-yl]methanamine], the Ki fell in the range of 50 to 200 nM.

Test system in another data set: not given
Assay: not given
Conditions: not given
As usually defined, the melting point is the temperature, or range, at which the solid turns liquid. In turn, `NC[C@H]1COc2cc(Cl)cc(-c3ccc(Cl)cc3Cl)c2O1` (as salt: hydrochloride) [Compound I-64, (2S)-[6-Chloro-8-(2,4-dichloro-phenyl)-2,3-dihydro-benzo[1,4]dioxin-2-yl]-methyl amine] showed a melting point of 140 °C.

`NCC1Oc2cc(Cl)cc(-c3cc(F)ccc3F)c2O1` (stereo not drawn) (as salt: hydrochloride) [Compound I-99, [6-Chloro-4-(2,5-difluoro-phenyl)-benzo[1,3]dioxol-2-yl]-methylamine] showed a melting point greater than 250 °C.

In turn, `CNCC1COc2cccc(-c3cccc(C)c3C)c2O1` (stereo not drawn) (as salt: fumarate) [Compound I-25, {[8-(2,3-Dimethylphenyl)-2,3-dihydro-1,4-benzodioxin-2-yl]methyl}methylamine] yielded a melting point of 194 to 195 °C.

The compound `Clc1ccc(-c2cccc3c2OC(CNC2CC2)CO3)c(Cl)c1` (stereo not drawn) (as salt: fumarate) [Compound I-44, N-{[8-(2,4-Dichlorophenyl)-2,3-dihydro-1,4-benzodioxin-2-yl]methyl}cyclopropanamine] yielded a melting point of 181 to 182 °C.

Compound `CNCC1COc2cccc(-c3cc(C)ccc3C)c2O1` (stereo not drawn) (as salt: fumarate) [Compound I-26, {[8-(2,5-Dimethylphenyl)-2,3-dihydro-1,4-benzodioxin-2-yl]methyl}methylamine] gave a melting point of 174 to 175 °C.

For the compound `CNCC1COc2cccc(-c3cccc(F)c3F)c2O1` (stereo not drawn) (as salt: fumarate) [Compound I-27, {[8-(2,3-Difluorophenyl)-2,3-dihydro-1,4-benzodioxin-2-yl]methyl}methylamine], the melting point lay within 181 to 182 °C.

Take `COc1ccccc1-c1cccc2c1O[C@@](C)(CN)CO2` (as salt: fumarate) [Compound I-52, {[(2S)-8-(2-Methoxyphenyl)-2-methyl-2,3-dihydro-1,4-benzodioxin-2-yl]methyl}amine]: the melting point is 128 to 131 °C.

Take `NCC1COc2cccc(-c3ccccc3C(F)(F)F)c2O1` (stereo not drawn) (as salt: fumarate) [Compound I-4, ({8-[2-(Trifluoromethyl)phenyl]-2,3-dihydro-1,4-benzodioxin-2-yl}methyl)amine]: the melting point lay in the range of 208 to 209 °C.

As to `NCC1Oc2cc(F)cc(-c3ccccc3F)c2O1` (stereo not drawn) (as salt: hydrochloride) [Compound I-83, 1-[4-(2-Fluoro-phenyl)-6-fluoro-1,3-benzodioxol-2-yl]methanamine], the melting point is 234 to 235 °C.

Compound `CCNCC1COc2cccc(-c3ccc(Cl)cc3Cl)c2O1` (stereo not drawn) (as salt: fumarate) [Compound I-33, N-{[8-(2,4-Dichlorophenyl)-2,3-dihydro-1,4-benzodioxin-2-yl]methyl}ethanamine] gave a melting point of 179 to 180 °C.

On to `NCC1Oc2cc(Cl)cc(-c3ccccc3Cl)c2O1` (stereo not drawn) (as salt: hydrochloride) [Compound I-90, [6-Chloro-4-(2-chloro-phenyl)-benzo[1,3]dioxol-2-yl]-methylamine], for which the melting point was greater than 250 °C.

Turning to `NC[C@H]1COc2cc(F)cc(-c3c(Cl)cccc3Cl)c2O1` (as salt: salt) [Compound I-47, {[(2S)-8-(2,6-Dichlorophenyl)-6-fluoro-2,3-dihydro-1,4-benzodioxin-2-yl]methyl}amine], the melting point is 165 to 167 °C.

On to `Cc1ccccc1-c1cc(Cl)cc2c1O[C@@H](CN)CO2` (as salt: hydrochloride) [Compound I-60, (2S)-[6-Chloro-8-(2-methyl-phenyl)-2,3-dihydro-benzo[1,4]dioxin-2-yl]-methylamine], for which the melting point was greater than 245 °C.

`Clc1ccccc1-c1cccc2c1OC(CNC1CC1)CO2` (stereo not drawn) (as salt: fumarate) [Compound I-43, N-{[8-(2-Chlorophenyl)-2,3-dihydro-1,4-benzodioxin-2yl]methyl}cyclopropanamine] had a melting point of 148 to 149 °C.

The compound `Cc1ccccc1-c1cc(Cl)cc2c1OC(CN)O2` (stereo not drawn) (as salt: hydrochloride) [Compound I-91, [6-Chloro-4-(2-methyl-phenyl)-benzo[1,3]dioxol-2-yl]-methylamine] displayed a melting point greater than 250 °C.

`NCC1COc2cccc(-c3cc(Cl)ccc3Cl)c2O1` (stereo not drawn) (as salt: fumarate) [Compound I-8, {[8-(2,5-Dichlorophenyl)-2,3-dihydro-1,4-benzodioxin-2-yl]methyl}amine] yielded a melting point of 206 to 207 °C.

On to `C[C@]1(CN)COc2cccc(-c3cccc(Cl)c3)c2O1` (as salt: fumarate) [Compound I-50, {[(2S)-8-(3-Chlorophenyl)-2-methyl-2,3-dihydro-1,4-benzodioxin-2-yl]methyl}amine], for which the melting point lay within 110 to 113 °C.

Compound `COc1ccccc1-c1cc(F)cc2c1OC(CN)O2` (stereo not drawn) (as salt: hydrochloride) [Compound I-76, 1-[6-Fluoro-4-(2-methoxyphenyl)-1,3-benzodioxol-2-yl]methanamine] returned a melting point of 184 to 186 °C.

For `NCC1Oc2cc(Cl)cc(-c3ccccc3F)c2O1` (stereo not drawn) (as salt: salt) [Compound I-93, [6-Chloro-4-(2-fluoro-phenyl)-benzo[1,3]dioxol-2-yl]-methylamine], the melting point was greater than 250 °C.

In the case of `CNCC1COc2cccc(-c3cc(Cl)ccc3OC)c2O1` (stereo not drawn) (as salt: fumarate) [Compound I-31, {[8-(5-Chloro-2-methoxyphenyl)-2,3-dihydro-1,4-benzodioxin-2-yl]methyl}methylamine], the melting point lay within 172 to 173 °C.

For the compound `NC[C@@H]1Oc2cc(F)cc(-c3c(Cl)cccc3Cl)c2O1` (as salt: hydrochloride) [Compound I-86, 1-[(2R)-4-(2,6-dichlorophenyl)-6-fluoro-1,3-benzodioxol-2-yl]methanamine], the melting point lay in the range of 206 to 208 °C.

Regarding `NC[C@H]1COc2cc(Cl)cc(-c3ccccc3C(F)(F)F)c2O1` (as salt: hydrochloride) [Compound I-62, (2S)-[6-Chloro-8-(2-trifluoromethyl-phenyl)-2,3-dihydro-benzo[1,4]dioxin-2-yl]-methylamine], the melting point lay in the range of 231 to 233 °C.

`CN(C)CC1COc2cccc(-c3ccc(Cl)cc3Cl)c2O1` (stereo not drawn) (as salt: fumarate) [Compound I-39, {[8-(2,4-Dichlorophenyl)-2,3-dihydro-1,4-benzodioxin-2-yl]methyl}dimethylamine] returned a melting point of 232 to 233 °C.

The compound `NCC1Oc2cc(F)cc(-c3cccc(Cl)c3)c2O1` (stereo not drawn) (as salt: hydrochloride) [Compound I-78, 1-[4-(3-Chlorophenyl)-6-fluoro-1,3-benzodioxol-2-yl]methanamine] gave a melting point of 267 to 270 °C.

Compound `Clc1ccc(-c2cccc3c2OC(CNC2CCC2)CO3)c(Cl)c1` (stereo not drawn) (as salt: fumarate) [Compound I-45, N-{[8-(2,4-Dichlorophenyl)-2,3-dihydro-1,4-benzodioxin-2-yl]methyl}cyclobutanamine] returned a melting point of 204 to 205 °C.

As to `CC(C)NCC1COc2cccc(-c3ccccc3Cl)c2O1` (stereo not drawn) (as salt: fumarate) [Compound I-36, N-{[8-(2-Chlorophenyl)-2,3-dihydro-1,4-benzodioxin-2-yl]methyl}propan-2-amine], the melting point lay within 199 to 200 °C.

With `Clc1ccccc1-c1cccc2c1OC(CNCC1CC1)CO2` (stereo not drawn) (as salt: fumarate) [Compound I-41, {[8-(2-Chlorophenyl)-2,3-dihydro-1,4-benzodioxin-2-yl]methyl}(cyclopropylmethyl)-amine], the melting point was in the range of 138 to 140 °C.
